Data taken from patent US20240208961A1, “EIF4E INHIBITORS AND USES THEREOF” (PIC Therapeutics, Inc., priority 2022, published 2024).
“And” between values parts separate entries of the source, which are not always exact repeats. Identical values can stand only once. Like-named read-outs stand apart in the source and are kept apart here.

Assays:
[1] = Pharmacokinetic studies of certain compounds in female Balb/c mice (Example 5); assay type: in vivo; conditions: for concentration at 0.5 hr / concentration at 1 hr / concentration at 2 hr / concentration at 4 hr: BALB/c
Protocol: Pharmacokinetic studies were performed using Balb/c mice, 15-20 g, 6-9 weeks, female, N=9, purchased from Jihui Laboratory Animal Co. LTD. For compound I-29, Balb/c mice, 19-21 g, 9-11 weeks, female, N=9, were used. The mice were fasted overnight and fed at 4 h post dosing.
Animals were dosed via oral gavage (PO) or tail vein injection (IV) with compound. Sampling occurred at 0.083, 0.25, 0.5, 1, 2, 4, 8, and 24 h post dose (8 time points). The animals were restrained manually at the designated time points. Approx. […] of blood was taken from the animals via facial vein for semi-serial bleeding into tubes with K2EDTA. Blood samples were put on ice and centrifuged at 4° C. (2000 g, 5 min) to obtain plasma within 15 min after sample collection. Plasma samples were stored in dry ice temporarily and at approximately −70° C. until analysis.
For oral gavage, the compound was dosed as a suspension in 1% sodium carboxymethyl cellulose (CMC) and 0.2% Tween 80 in water. For 23.8 mg/kg and 30 mg/kg doses, 3 mg/mL was used; for 50 mg/kg doses, 5 mg/mL was used; and for 100 mg/kg doses, 10 mg/mL was used.
For IV administration, the compound was dosed as a solution in 5% DMSO, 5% Solutol HS15 and 90% saline. For 1 mg/kg and 1.48 mg/kg doses, 0.2 mg/mL was used.
Plasma samples were analyzed using LC-MS using a calibration curve of known concentrations.
The results of these studies are summarized in Tables 11-21 below and in FIGS. 2-8. […] BQL=below quantifiable limit for compound in female Balb/c mouse plasma samples. NA=not available. PK parameters were estimated by non-compartmental model using WinNonlin 8.2. If the adjusted rsq (linear regression coefficient of the concentration value on the terminal phase) was less than 0.9, T1/2 might not have been accurately estimated. F value was determined by the following equation: • If AUClast/AUCINF>80%:
F=(AUCINF-EX×DOSEIV)/(AUCINF-IV×DOSEEX)[…] • If AUClast/AUCINF<80% or AUCINF not available:
F=(AUClast-EX×DOSEIV)/(AUClast-IV×DOSEEX)*1000

[2] = test system: ZR-75-1; assay: Cell viability assay, adherent cell line, 5 day Alamar Blue (Example 8): ZR-75-1; assay type: cell-based; conditions: Homo sapiens, 120 h, ZR-75-1, Breast Cancer Cell Viability
[3] = mouse, plasma, I-2 PO 100 mg/kg

CC(C)Cc1sc(Nc2ncc(-c3cccs3)cc2C(=O)O)nc1C1=CCCCC1 [Compound I-2]
Plasma concentration Individual ([1]; I-2 PO 30 mg/kg, 0.083 hr, 30 mg/kg): 106 ng/mL and 211 ng/mL and 94.1 ng/mL
Plasma concentration Individual ([1]; I-2 PO 30 mg/kg, 0.25 hr, 30 mg/kg): 663 ng/mL and 622 ng/mL
Plasma concentration Individual ([1]; I-2 PO 30 mg/kg, 0.5 hr, 30 mg/kg): 1380 ng/mL and 1170 ng/mL
Plasma concentration Individual ([1]; I-2 PO 30 mg/kg, 1 hr, 30 mg/kg): 2110 ng/mL and 1590 ng/mL
Plasma concentration Individual ([1]; I-2 PO 30 mg/kg, 2 hr, 30 mg/kg): 2640 ng/mL and 2190 ng/mL
Plasma concentration Individual ([1]; I-2 PO 30 mg/kg, 4 hr, 30 mg/kg): 1600 ng/mL
Plasma concentration Individual ([1]; I-2 PO 30 mg/kg, 8 hr, 30 mg/kg): 233 ng/mL and 261 ng/mL
Plasma concentration Individual ([1]; I-2 PO 30 mg/kg, 24 hr, 30 mg/kg): 7.09 ng/mL and 5.63 ng/mL
Plasma concentration Individual ([1]; I-2 PO 100 mg/kg, 0.083 hr, 100 mg/kg): 406 ng/mL and 159 ng/mL and 182 ng/mL
Plasma concentration Individual ([1]; I-2 PO 100 mg/kg, 0.25 hr, 100 mg/kg): 1310 ng/mL and 2360 ng/mL and 885 ng/mL
Plasma concentration Individual ([1]; I-2 PO 100 mg/kg, 0.5 hr, 100 mg/kg): 3290 ng/mL and 2960 ng/mL
Plasma concentration Individual ([1]; I-2 PO 100 mg/kg, 1 hr, 100 mg/kg): 3010 ng/mL and 3120 ng/mL
Plasma concentration Individual ([1]; I-2 PO 100 mg/kg, 2 hr, 100 mg/kg): 4510 ng/mL and 3430 ng/mL
Plasma concentration Individual ([1]; I-2 PO 100 mg/kg, 4 hr, 100 mg/kg): 3380 ng/mL and 1660 ng/mL and 2310 ng/mL
Plasma concentration Individual ([1]; I-2 PO 100 mg/kg, 8 hr, 100 mg/kg): 914 ng/mL and 861 ng/mL
Plasma concentration Individual ([1]; I-2 PO 100 mg/kg, 24 hr, 100 mg/kg): 19.7 ng/mL and 18.8 ng/mL and 37.7 ng/mL
concentration at 0.5 hr ([1]; female, mouse, plasma, po, 30 mg/kg, I-2 PO 30 mg/kg, 0.5 hr, read-out: Plasma concentration Individual): 1160 ng/mL
concentration at 0.5 hr ([1]; female, mouse, plasma, po, 30 mg/kg, I-2 PO 30 mg/kg, 0.5 hr, read-out: Plasma concentration Mean): 1240 ng/mL
concentration at 1 hr ([1]; female, mouse, plasma, po, 30 mg/kg, I-2 PO 30 mg/kg, 1 hr, read-out: Plasma concentration Individual): 1700 ng/mL
concentration at 1 hr ([1]; female, mouse, plasma, po, 30 mg/kg, I-2 PO 30 mg/kg, 1 hr, read-out: Plasma concentration Mean): 1800 ng/mL
concentration at 2 hr ([1]; female, mouse, plasma, po, 30 mg/kg, I-2 PO 30 mg/kg, 2 hr, read-out: Plasma concentration Individual): 2150 ng/mL
concentration at 2 hr ([1]; female, mouse, plasma, po, 30 mg/kg, I-2 PO 30 mg/kg, 2 hr, read-out: Plasma concentration Mean): 2330 ng/mL
concentration at 4 hr ([1]; female, mouse, plasma, po, 30 mg/kg, I-2 PO 30 mg/kg, 4 hr, read-out: Plasma concentration Individual): 1340 ng/mL
concentration at 4 hr ([1]; female, mouse, plasma, po, 30 mg/kg, I-2 PO 30 mg/kg, 4 hr, read-out: Plasma concentration Mean): 1510 ng/mL
concentration at 0.083 h ([1]; female, Balb/c, mouse, plasma, po, 30 mg/kg, I-2 PO 30 mg/kg, 0.083 hr, read-out: Plasma concentration Mean): 137 ng/mL
concentration at 0.25 h ([1]; female, Balb/c, mouse, plasma, po, 30 mg/kg, I-2 PO 30 mg/kg, 0.25 hr, read-out: Plasma concentration Individual): 472 ng/mL
concentration at 0.25 h ([1]; female, Balb/c, mouse, plasma, po, 30 mg/kg, I-2 PO 30 mg/kg, 0.25 hr, read-out: Plasma concentration Mean): 586 ng/mL
concentration at 8 hr ([1]; female, Balb/c, mouse, plasma, po, 30 mg/kg, I-2 PO 30 mg/kg, 8 hr, read-out: Plasma concentration Individual): 244 ng/mL
concentration at 8 h ([1]; female, Balb/c, mouse, plasma, po, 30 mg/kg, I-2 PO 30 mg/kg, 8 hr, read-out: Plasma concentration Mean): 246 ng/mL
concentration at 24 h ([1]; female, Balb/c, mouse, plasma, po, 30 mg/kg, I-2 PO 30 mg/kg, 24 hr, read-out: Plasma concentration Individual): 4.28 ng/mL
concentration at 24 h ([1]; female, Balb/c, mouse, plasma, po, 30 mg/kg, I-2 PO 30 mg/kg, 24 hr, read-out: Plasma concentration Mean): 5.67 ng/mL
concentration at 0.083 h ([1]; female, Balb/c, mouse, plasma, po, 100 mg/kg, I-2 PO 100 mg/kg, 0.083 hr, read-out: Plasma concentration Mean): 249 ng/mL
concentration at 0.25 h ([1]; female, Balb/c, mouse, plasma, po, 100 mg/kg, I-2 PO 100 mg/kg, 0.25 hr, read-out: Plasma concentration Mean): 1520 ng/mL
concentration at 0.5 h ([1]; female, Balb/c, mouse, plasma, po, 100 mg/kg, I-2 PO 100 mg/kg, 0.5 hr, read-out: Plasma concentration Individual): 2800 ng/mL
concentration at 0.5 h ([1]; female, Balb/c, mouse, plasma, po, 100 mg/kg, I-2 PO 100 mg/kg, 0.5 hr, read-out: Plasma concentration Mean): 3020 ng/mL
concentration at 1 h ([1]; female, Balb/c, mouse, plasma, po, 100 mg/kg, I-2 PO 100 mg/kg, 1 hr, read-out: Plasma concentration Individual): 4550 ng/mL
concentration at 1 h ([1]; female, Balb/c, mouse, plasma, po, 100 mg/kg, I-2 PO 100 mg/kg, 1 hr, read-out: Plasma concentration Mean): 3560 ng/mL
concentration at 2 h ([1]; female, Balb/c, mouse, plasma, po, 100 mg/kg, I-2 PO 100 mg/kg, 2 hr, read-out: Plasma concentration Individual): 3810 ng/mL
concentration at 2 h ([1]; female, Balb/c, mouse, plasma, po, 100 mg/kg, I-2 PO 100 mg/kg, 2 hr, read-out: Plasma concentration Mean): 3920 ng/mL
concentration at 4 h ([1]; female, Balb/c, mouse, plasma, po, 100 mg/kg, I-2 PO 100 mg/kg, 4 hr, read-out: Plasma concentration Mean): 2450 ng/mL
concentration at 8 h ([1]; female, Balb/c, mouse, plasma, po, 100 mg/kg, I-2 PO 100 mg/kg, 8 hr, read-out: Plasma concentration Individual): 1080 ng/mL
concentration at 8 h ([1]; female, Balb/c, mouse, plasma, po, 100 mg/kg, I-2 PO 100 mg/kg, 8 hr, read-out: Plasma concentration Mean): 952 ng/mL
concentration at 24 h ([1]; female, Balb/c, mouse, plasma, po, 100 mg/kg, I-2 PO 100 mg/kg, 24 hr, read-out: Plasma concentration Mean): 25.4 ng/mL
AUC(0-inf) ([1]; mouse, plasma, I-2 PO 30 mg/kg): 12500 ng·h/mL
AUC(0-t) ([1]; mouse, plasma, I-2 PO 30 mg/kg): 12500 ng·h/mL
Cmax ([1]; mouse, plasma, I-2 PO 30 mg/kg): 2330 ng/mL
MRT inf ([1]; mouse, plasma, I-2 PO 30 mg/kg): 3.85 h
MRT last ([1]; mouse, plasma, I-2 PO 30 mg/kg): 3.81 h
Tmax ([1]; mouse, plasma, I-2 PO 30 mg/kg): 2 h
half-life ([1]; mouse, plasma, I-2 PO 30 mg/kg): 2.6 h
AUC(0-inf) [1, 3]: 27200 ng·h/mL
AUC(0-t) [1, 3]: 27100 ng·h/mL
Cmax [1, 3]: 3920 ng/mL
MRT inf [1, 3]: 4.73 h
MRT last [1, 3]: 4.63 h
Tmax [1, 3]: 2 h
half-life [1, 3]: 3.04 h
IC50 [2]: ≤ 1000 nM
